What all share (test): relative viability (nuclei count vs DMSO), 5 days (fraction); higher = more cells survive
Compound in experiment [1]: C(C(=O)C(=O)O)Br [Bromopyruvate] + COc1cc2c(Oc3ccc(NC(=O)C4(C(=O)Nc5ccc(F)cc5)CC4)cc3F)ccnc2cc1OCCCN1CCOCC1 [Foretinib] (partner 0.25 µM)
The method in brief:
(§1)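 Relative viability is defined as nuclei in treated wells over nuclei in vehicle wells. Duplicate plates were run and medians reported. Lung cancer cell lines in 1536-well plates were dosed by pin tool one day after seeding, with one drug or with a fixed anchor-drug dose plus five library-drug doses (not always all listed) in √10 steps, and nuclei were counted after 5 days.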

Compound in experiment [2]: CC(O)(CS(=O)(=O)c1ccc(F)cc1)C(=O)Nc1ccc(C#N)c(C(F)(F)F)c1 [Bicalutamide] + C[C@@H](Oc1cc(-c2cnn(C3CCNCC3)c2)cnc1N)c1c(Cl)ccc(F)c1Cl [Crizotinib] (partner 1 µM)
The method in brief:
as §1

Compound in experiment [3]: CC(O)(CS(=O)(=O)c1ccc(F)cc1)C(=O)Nc1ccc(C#N)c(C(F)(F)F)c1 [Bicalutamide] + C[C@]1(O)C[C@@H](c2nc(-c3ccc4ccc(-c5ccccc5)nc4c3)c3c(N)nccn32)C1 [Linsitinib] (partner 1 µM)
The method in brief:
as §1

Compound in experiment [4]: CC(O)(CS(=O)(=O)c1ccc(F)cc1)C(=O)Nc1ccc(C#N)c(C(F)(F)F)c1 [Bicalutamide] + CS(=O)(=O)N1CCN(Cc2cc3nc(-c4cccc5[nH]ncc45)nc(N4CCOCC4)c3s2)CC1 [Pictilisib] (partner 1 µM)
The method in brief: as §1

In the case of UMC-11, the relative viability worked out at 1.05 in experiment [1] (first compound 1 µM); 1.02 in experiment [1] (first compound 3.162 µM); 1.04 in experiment [1] (first compound 10 µM); 0.989 in experiment [1] (first compound 31.62 µM); 0.987 in experiment [1] (first compound 100 µM); 0.69 in experiment [2] (first compound 0.08 µM). In addition, the relative viability in experiment [2] (first compound 0.253 µM) was determined as 0.521; in experiment [2] (first compound 0.8 µM), 0.643; in experiment [2] (first compound 2.53 µM), 0.399; in experiment [3] (first compound 0.08 µM), 1.1; in experiment [3] (first compound 0.253 µM) it was 0.662; in experiment [3] (first compound 0.8 µM), 1.08. Besides, the relative viability in experiment [3] (first compound 2.53 µM) amounted to 0.955; in experiment [4] (first compound 0.08 µM), 0.742; in experiment [4] (first compound 0.253 µM), 0.621; in experiment [4] (first compound 0.8 µM) it was 1.14; in experiment [4] (first compound 2.53 µM) it was 0.768.
